The values below are quoted from earlier work in patent US11324965B2, “Non-invasive energy upconversion methods and systems” (IMMUNOLIGHT, LLC., priority 2009, dated 2022).

Read-outs that look alike come from different tables or passages of the source. Square brackets hold non-standard residues; d marks the D form. Peptide text beside a SMILES is read from it. Bpa = N[CH](Cc1ccc(C(=O)c2ccccc2)cc1)C(=O)O; 2Nal = N[CH](Cc1ccc2ccccc2c1)C(=O)O; Aib = CC(C)(N)C(=O)O

The conditions of series [1]: for KSSET (Average): average over λex 224, 266, 280 nm.
The subject of another series is tumors. Particulars: in vivo.
The conditions of series [2]: orange juice, high UV exposure of 100 mJ/cm^2.

For `C=C(NC(C)(C)C(=O)NC(Cc1ccc2ccccc2c1)C(=O)NC(C)(C)C(=O)NC(Cc1ccc(C(=O)c2ccccc2)cc1)C(=O)NC(C)(C)C(=O)NC(C)C(=O)O)C(C)NC(=O)[C@@H](C)N` (single isomer, unassigned) [Compound 2B], in series [1], the “KSSET (Average)” value is given as 3.9 × 10^7 S^−1. Moreover, the KSSET in series [1] (λex 224 nm) was 3.1 × 10^7 S^−1; in series [1] (λex 266 nm) it was 3.9 × 10^7 S^−1; in series [1] (λex 280 nm) it was 4.7 × 10^7 S^−1.

Regarding `CC(NC(=O)C(C)(C)NC(=O)C(Cc1ccc(C(=O)c2ccccc2)cc1)NC(=O)C(C)(C)NC(=O)C(C)NC(=O)C(C)(C)NC(=O)C(Cc1ccc2ccccc2c1)NC(=O)C(C)(C)N)C(=O)O` (centres unmarked) [Compound 1B] (H-[Aib][2Nal][Aib]A[Aib][Bpa][Aib]A-OH; configuration not given here), the “KSSET (Average)” value in series [1] was 1.87 × 10^8 S^−1. Moreover, the KSSET is 2.44 × 10^8 S^−1 in series [1] (λex 224 nm), 1.8 × 10^8 S^−1 in series [1] (λex 266 nm) and 1.36 × 10^8 S^−1 in series [1] (λex 280 nm).

For the compound `CC1NC(=O)C(C)(C)NC(=O)C(Cc2ccc(C(=O)c3ccccc3)cc2)NC(=O)C(C)(C)NC(=O)C(C)NC(=O)C(C)(C)NC(=O)C(Cc2ccc3ccccc3c2)NC(=O)C(C)(C)NC1=O` (centres unmarked) [Compound 1A] (cyclo([Aib][2Nal][Aib]A[Aib][Bpa][Aib]A); configuration not given here), the “KSSET (Average)” value in series [1] was 3.67 × 10^7 S^−1. The KSSET in series [1] (λex 224 nm) is on record as 3.8 × 10^7 S^−1; in series [1] (λex 266 nm), 3.6 × 10^7 S^−1; in series [1] (λex 280 nm) it was 3.6 × 10^7 S^−1.

Consider `Oc1cccc(-c2c3nc(c(-c4cccc(O)c4)c4ccc([nH]4)c(-c4cccc(O)c4)c4nc(c(-c5cccc(O)c5)c5ccc2[nH]5)CC4)C=C3)c1` [Foscan, Tetra (m-hydroxyphenyl) chlorin], for which the “duration of skin photosensitivity” value (in vivo) is “approximately 2 weeks”.

`CC(=O)[O-].CC(=O)[O-].CCc1c(CC)c2cc3nc(cnc4cc(OCCOCCOCCOC)c(OCCOCCOCCOC)cc4ncc4nc(cc1[n-]2)C(CCCO)=C4C)C(C)=C3CCCO.O.[Lu+3]` [Lutetium texaphryin, Motexafin lutetium]: where the note is “clinical use”, the “duration of skin photosensitivity” value was 24 to 48 h. Also, in the series on tumors, the “selectivity for tumors compared to normal tissues” value is “one of the greatest reported selectivities for tumors”.

As to `C=C(NC(C)(C)C(=O)NC(Cc1ccc2ccccc2c1)C(=O)NC(C)(C)C(=O)NC(Cc1ccc(C(=O)c2ccccc2)cc1)C(=O)NC(C)(C)C(=O)NC(C)C(=O)O)C(C)NC(=O)[C@@H](C)N` (single isomer, unassigned) [Compound 2A], in series [1], the “KSSET (Average)” value was 3 × 10^7 S^−1. For the same compound, the KSSET in series [1] (λex 224 nm) was 2.1 × 10^7 S^−1; in series [1] (λex 266 nm), 3.7 × 10^7 S^−1; in series [1] (λex 280 nm) it was 3.2 × 10^7 S^−1.

On to `O=C1O[C@H]([C@@H](O)CO)C(O)=C1O` [Vitamin C], for which the “degradation of Vitamin C” value in series [2] is reported as 17%.
